Here are results for 5 molecules from article PMC6407578, “Synthesis and biological evaluation of ursolic acid derivatives bearing triazole moieties as potential anti-Toxoplasma gondii agents” (Journal of Enzyme Inhibition and Medicinal Chemistry, 2019).

Where two headings read alike, the source gives them in different places.

For one data set, the system named is T. gondii tachyzoites. Description: In vivo anti-T. gondii activity, acute infection model in KM mice (intraperitoneal tachyzoite count). To be noted: T. gondii-infected KM mice, 100 mg/kg by gavage once a day for 4 days; for inhibitory rate of tachyzoites: ascitic fluid; for Amount of tachyzoite: intraperitoneal tachyzoites. The arrangement: species or system Toxoplasma gondii. The method, then:
(§1) Thirty female KM mice were used to establish an animal model of acute T. gondii infection. These were randomly divided into five groups: infected untreated, normal, infected with spiramycin treatment, infected with 1e treatment and infected with 3d treatment. Each group consisted of six mice. Four hours after infection, 100 mg/kg of the compounds was administered to the mice by gavage, once a day for 4 consecutive days, whereas the untreated group was administered the same dose of physiological saline. On the fifth day, blood from the eyes of mice was collected and they were sacrificed by cervical dislocation. Their abdominal cavity was rinsed with sterile physiological saline to collect the parasites/tachyzoites. These were counted under the light microscope, and the inhibition rate of parasites was calculated. The liver and spleen were dissected and liver and spleen indexes, serum alanine aminotransferase (ALT), aspartate aminotransferase (AST), and liver homogenate glutathione (GSH) and malonaldehyde (MDA) were determined.

For data set [1], the system named is T. gondii RH strain tachyzoites. Description: In vitro T. gondii growth inhibition in HeLa host cells (MTT). Type of data set: cell-based, Toxoplasma gondii. To be noted: for SI (selectivity index): IC50 in HeLa cells/IC50 in T. gondii; for IC50: median inhibitory concentration, tachyzoite inhibition, HeLa host cells, 24 h. The procedure:
(§2) The cytotoxicity of compounds was determined using the previously published thiazolyl blue-based colorimetric method. For this, HeLa cells were used as host cells and their ability to resist invasion by T. gondii RH strain tachyzoites in vitro was checked. The cells were plated in 96-well plates at an appropriate density to ensure exponential growth throughout the experimental period (3 × 10^3 cells per well) and then allowed to adhere for 24 h at 37 °C. The cells were infected with T. gondii (1.5 × 10^4 tachyzoites/well), followed by incubation for 24 h. All compounds were prepared in dimethyl sulfoxide (DMSO) at a stock concentration of 100 mM. Serial dilutions (1–1000 μM) of each compound were tested. Spiramycin was used as a positive control. After 24 h of incubation, 10 μL of MTT solution were added to each well and cells were incubated for a further 2 h. The optical density (OD) was read on a microplate reader at a wavelength of 492 nm. The IC50 in HeLa cells, IC50 in T. gondii and selectivity index were calculated using Microsoft Excel.

A further data set has as its system HeLa cells. Description: Cytotoxicity on HeLa host cells (MTT). It counts as cell-based. To be noted: median toxicity dose, cytotoxicity against host cells, 24 h. The method, then:
as §2

Data set [2] is described as follows: Liver/spleen indexes, serum ALT/AST, liver MDA/GSH in T. gondii-infected KM mice. It counts as in vivo. The conditions noted are these: 100 mg/kg; for spleen index: effect on the infection-induced increase, not statistically significant; for GSH content (liver homogenate): compared to the untreated group. The method, then:
as §1

In the next data set the test system is T. gondii. Also on record: method as in PMID 25288090. To be noted: cited from earlier work.
[3] abbreviates: T. gondii-infected KM mice, compared with the untreated group.

As for Spiramycin [reference compound], in the data set on T. gondii tachyzoites, the “inhibitory rate of tachyzoites” value was 56.8% and the Amount of tachyzoite is 97.2 ×10^4. For the same molecule, in data set [1], the “SI (selectivity index)” value is on record as 0.72 and the IC50 was determined as 262 µM. The same molecule showed an IC50 in the data set on HeLa cells of 189 µM. In data set [2] (setting [3]), the “levels of MDA (liver homogenate)” value is recorded as “significantly decreased”. Besides, in data set [2] (T. gondii-infected KM mice), the spleen index result is “subjugated”.
`C[C@H]1[C@H](C)CC[C@]2(C(=O)O)CC[C@]3(C)C(=CC[C@@H]4[C@@]5(C)CC[C@H](O)C(C)(C)[C@@H]5CC[C@]43C)[C@H]12` [Ursolic Acid, Ursolic acid]: in the data set with T. gondii tachyzoites, the “inhibitory rate of tachyzoites” value is 65.4% and the Amount of tachyzoite is 77.9 ×10^4. Besides, in data set [1], the “SI (selectivity index)” value was 0.62. Also, in data set [1] (Toxoplasma gondii), the IC50 was determined as 72.2 µM. For the same molecule, inhibition in the data set on HeLa cells (Homo sapiens, HeLa) was half-maximal at 44.8 µM (IC50). Further, the “levels of MDA (liver homogenate)” value in data set [2] (setting [3]) is “significantly decreased”. Moreover, the spleen index result in data set [2] (T. gondii-infected KM mice) was “subjugated”. The “serum ALT and AST levels” value in data set [2] (mouse, in vivo) is “striking reduction”.
On to `S=C1N=NC(c2cccs2)=N1` [compound 2, 3-(thiophen-2-yl)-1,2,4-triazole-5-thione], for which the selectivity value in the data set on T. gondii (3[H]uracil incorporation method) is on record as 4.58; with T. gondii (qRT-PCR), 5.21.
With `C[C@H]1[C@H](C)CC[C@]2(C(=O)O)CC[C@]3(C)C(=CC[C@@H]4[C@@]5(C)C/C(=C\c6cn(-c7ccccc7Cl)nn6)C(=O)C(C)(C)[C@@H]5CC[C@]43C)[C@H]12` [1e, (1S,2R,4aS,6aS,6bR,8aR,12aR,12bR,14bS,E)-11-((1–(2-chlorophenyl)-1H-1,2,3-triazol-4-yl)methylene)-1,2,6a,6b,9,9,12a-heptamethyl-10-oxo-1,3,4,5,6,6a,6b,7,8,8a,9,10,11,12,12a,12b,13,14b-octadecahydropicene-4a(2H)-carboxylic acid], in the data set with T. gondii tachyzoites, the “inhibitory rate of tachyzoites” value was 37.0% and the Amount of tachyzoite is given as 141.8 ×10^4. In addition, the “SI (selectivity index)” value in data set [1] amounted to 1.95. This molecule returned an IC50 in data set [1] (Toxoplasma gondii) of 240 µM. The same molecule displayed an IC50 in the data set with HeLa cells (Homo sapiens, HeLa) of 466 µM. Also, the “GSH content (liver homogenate)” value in data set [2] (T. gondii-infected KM mice) was “significantly increase”. Moreover, the “serum ALT and AST levels” value in data set [2] (setting [3]) is “striking reduction”.
Turning to `C[C@H]1[C@H](C)CC[C@]2(C(=O)OCCn3cnnc3-c3ccc([N+](=O)[O-])cc3)CC[C@]3(C)C(=CC[C@@H]4[C@@]5(C)CCC(O)C(C)(C)[C@@H]5CC[C@]43C)[C@H]12` (stereo partly drawn) [3d, 2 –(3-(4-nitrophenyl)-4H-1,2,4-triazol-4-yl)ethyl(1S,2R,4aS,6aS,6bR,8aR,12aR,12bR,14bS)-10-hydroxy-1,2,6a,6b,9,9,12a-heptamethyl-1,3,4,5,6,6a,6b,7,8,8a,9,10,11,12,12a,12b,13,14b-octadecahydropicene-4a(2H)-carboxylate], in the data set on T. gondii tachyzoites, the “inhibitory rate of tachyzoites” value is given as 70.4% and the Amount of tachyzoite is 66.6 ×10^4. In addition, in data set [1], the “SI (selectivity index)” value came to 1.77. Besides, the midpoint of inhibition in data set [1] (Toxoplasma gondii), the IC50, lay at 128 µM. Besides, in the data set on HeLa cells (Homo sapiens, HeLa), 227 µM corresponded to half-maximal inhibition (IC50). In addition, in data set [2] (T. gondii-infected KM mice), the “GSH content (liver homogenate)” value is “significantly increase” and the spleen index entry was “subjugated”. In addition, in data set [2] (setting [3]), the “levels of MDA (liver homogenate)” value was “significantly decreased”; the “serum ALT and AST levels” value is on record as “striking reduction”.
